The values below come from patent US20250376472A1, “3-(PHENYLSULFONYL)-[1,2,3]TRIAZOLO[1,5A]QUINAZOLIN-5(4H)-ONE DERIVATIVES” (priority 2022, published 2025).

Experiment [1] deals with T1, AgrA (Staphylococcus aureus, UniProt P0A0I7).
T1 construct: endogenous in cells; host or cells: S. aureus USA300 strain UAMS-1625 carrying a P3-lacZ reporter plasmid
The experiment is described as follows: cell-based. The note with it: for Ratio IC50 (in presence of HSA)/IC50 (in absence of HSA): 40 mg/mL HSA versus no HSA. Also noted: species or system S. aureus.

The subject of experiment [2] is S. aureus. Particulars: after multiple passages with Savirin; cited from earlier work.
Experiment [3] has as its system S. aureus. Particulars: cited from earlier work.
Experiment [4] deals with T1, AgrA. The note with it: all four agr groups; cited from earlier work.
For another experiment, the system named is MRSA USA300 type strain. The note with it: mice infected with MRSA USA300 type strain, applied multiple times; cited from earlier work.
For a further experiment, the system named is red blood cell (RBC). Particulars: cited from earlier work.
The mark [5] stands for this setting: IC50 at 40 mg/mL HSA, LB medium supplemented with human serum albumin 40 mg/mL.
The mark [6] stands for this setting: IC50 without HSA, LB medium, no human serum albumin, 18 hours incubation.
The mark [7] stands for this setting: LB medium supplemented with human serum albumin 40 mg/mL.
The mark [8] stands for this setting: LB medium, no human serum albumin, 18 hours incubation.

The term IC50 denotes the concentration at which inhibition is half-maximal. Read a high IC50 as a need for much substance.

Each structure is given as a SMILES string.

T1 sequence (P0A0I7 whole entry): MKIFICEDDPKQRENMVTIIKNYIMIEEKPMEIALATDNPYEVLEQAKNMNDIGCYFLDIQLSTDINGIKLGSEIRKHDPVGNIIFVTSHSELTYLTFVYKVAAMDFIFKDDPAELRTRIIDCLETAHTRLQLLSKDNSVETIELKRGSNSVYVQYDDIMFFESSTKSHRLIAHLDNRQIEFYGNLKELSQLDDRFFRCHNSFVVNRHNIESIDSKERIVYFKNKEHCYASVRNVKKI

For the compound `Cc1ccc(S(=O)(=O)c2nnn3c2[nH]c(=O)c2ccc(N4CCN(CC(=O)N5CCCCC5CN)CC4)cc23)c(C)c1` (stereo not drawn) [Compound 145], the IC50 lay within 16.9 to 84.4 µM against AgrA [1] (setting [5]) and 1.69 to 8.44 µM against AgrA [1] (setting [6]).

`Cc1ccc(S(=O)(=O)c2nnn3c2[nH]c(=O)c2ccc(N4CCN(CC(=O)N5CCCC(CCN)C5)CC4)cc23)c(C)c1` (stereo not drawn) [Compound 146]: the “Ratio IC50 (in presence of HSA)/IC50 (in absence of HSA)” value (“Ratio IC50 (in presence of HSA)/IC50” below) on AgrA [1] is given as “+++ (+++: ratio ≤ 25)”. The “IC50 at 40 mg/mL HSA” value against AgrA [1] (setting [7]) was “+++ (+++: IC50 ≤ 10 μg/mL)”. In addition, at AgrA [1] (setting [8]), the “IC50 without HSA” value is recorded as “++ (++: 1 μg/mL < IC50 ≤ 5 μg/mL)”.

Turning to `Cc1ccc(S(=O)(=O)c2nnn3c2[nH]c(=O)c2ccc(N4CCN(CC(=O)N5CCC(CN)CC5)CC4)cc23)c(C)c1` [Compound 147], the IC50 against AgrA [1] (setting [5]) was 16.9 to 84.4 µM; against AgrA [1] (setting [6]), 1.69 to 8.44 µM.

With `Cc1ccc(S(=O)(=O)c2nnn3c2[nH]c(=O)c2ccc(N4CCN(CC(=O)N5C[C@H]6CNC[C@H]6C5)CC4)cc23)c(C)c1` [Compound 153], the results for the IC50 on AgrA [1] (setting [5]) and against AgrA [1] (setting [6]) were 16.9 to 84.6 µM and 1.69 to 8.46 µM, respectively.

Regarding `Cc1ccc(S(=O)(=O)c2nnn3c2[nH]c(=O)c2ccc(N4CCCN(CC(=O)N5CCNCC5)CC4)cc23)c(C)c1` [Compound 161], the IC50 against AgrA [1] (setting [5]) is < 17.3 µM; at AgrA [1] (setting [6]), 1.73 to 8.64 µM.

Turning to `Cc1ccc(S(=O)(=O)c2nnn3c2[nH]c(=O)c2ccc(N4CCCN(CCC(=O)N5CCCC5)CC4)cc23)c(C)c1` [Compound 163], the IC50 was < 17.3 µM on AgrA [1] (setting [5]) and 1.73 to 8.65 µM on AgrA [1] (setting [6]).

With `O=C(CN1CCN(c2ccc3c(=O)[nH]c4c(S(=O)(=O)c5ccc(C(F)(F)F)cc5)nnn4c3c2)CC1)N1CCCC1` [Compound 164], the IC50 against AgrA [1] (setting [5]) was in the range of 17 to 84.8 µM; at AgrA [1] (setting [6]) it was 1.7 to 8.48 µM.

With `CC(C)c1ccc(S(=O)(=O)c2nnn3c2[nH]c(=O)c2ccc(N4CCN(CC(=O)N5CCCC5)CC4)cc23)cc1` [Compound 166], the “Ratio IC50 (in presence of HSA)/IC50” value on AgrA [1] is listed as “++ (++: 25 < ratio ≤ 125)”. Moreover, the “IC50 at 40 mg/mL HSA” value at AgrA [1] (setting [7]) was “++ (++: 10 μg/mL < IC50 ≤ 50 μg/mL)”. For the same compound, the “IC50 without HSA” value against AgrA [1] (setting [8]) is recorded as “+++ (+++: IC50 ≤ 1 μg/mL)”.

Consider `Cc1ccc(S(=O)(=O)c2nnn3c2[nH]c(=O)c2ccc(N4CCCN(CCC(=O)N5CCOCC5)CC4)cc23)c(C)c1` [Compound 168], for which the “Ratio IC50 (in presence of HSA)/IC50” value at AgrA [1] is reported as “+++ (+++: ratio ≤ 25)”. The “IC50 at 40 mg/mL HSA” value against AgrA [1] (setting [7]) is “+++ (+++: IC50 ≤ 10 μg/mL)”. For the same compound, the “IC50 without HSA” value on AgrA [1] (setting [8]) is “++ (++: 1 μg/mL < IC50 ≤ 5 μg/mL)”.

For the compound `O=C(CN1CCN(c2ccc3c(=O)[nH]c4c(S(=O)(=O)c5ccc(C(F)(F)F)cc5)nnn4c3c2)CC1)N1CCOCC1` [Compound 169], the half-inhibitory concentration (IC50) was in the range of 16.5 to 82.6 µM against AgrA [1] (setting [5]) and 1.65 to 8.26 µM against AgrA [1] (setting [6]).

On to `Cc1ccc(S(=O)(=O)c2nnn3c2[nH]c(=O)c2ccc(N4CCN(CC(=O)NCCc5ccncc5)CC4)cc23)c(C)c1` [Compound 175], for which the IC50 on AgrA [1] (setting [5]) is 16.6 to 83.2 µM; against AgrA [1] (setting [6]), < 1.66 µM.

Consider `CC(C)c1ccc(S(=O)(=O)c2nnn3c2nc(O)c2ccccc23)cc1` [Savirin], for which the resistance development entry with S. aureus [2] is listed as “No resistance was developed”. Also, the “viability of S. aureus” value in the experiment on S. aureus [3] is listed as “without affecting viability”. Besides, the “modulation of AgrA-regulated toxin gene transcription (hla, psma, pvl)” value on AgrA [4] was “potent modulator”. The “abscess size and dermonecrosis” value in the experiment with MRSA USA300 type strain is “significant reduction”. Moreover, in the experiment with red blood cell (RBC), the “exotoxin-induced red blood cell (RBC) lysis” value is recorded as “inhibited”.
